“Also recorded” adds a separate entry of the source.
How the values were obtained:
Murine tsc2ang1 cells = test: Inhibition of proliferation of tsc2ang1 cells by tyrosine kinase inhibitors (cell count); format: cell-based; settings: for N number of living cells after 72 h treatment: Murine tsc2ang1 cells
Description: (§1) SV7tert (ATCC CRL 2461) is a cell line derived from a human angiomyolipoma through the sequential introduction of SV40 large T antigen and telomerase into primary human angiomyolipoma cells (Arbiser, J. L. et al. The generation and characterization of a cell line derived from a sporadic renal angiomyolipoma: use of telomerase to obtain stable populations of cells from benign neoplasms. Am.J.Pathol. 159, 483-491 (2001)). Angiomyolipomas are benign tumors of the kidney derived from putative perivascular epithelioid cells, that may undergo differentiation into cells with features of melanocytes, smooth muscle, and fat. Tsc2ang1 (ATCC CRL 2620) is a murine cell line derived from a cutaneous sarcoma arising in the extremity of a mouse heterozygous for tsc2. The sarcoma tissue was digested with collagenase and processed as described for SV7tert cells (Arbiser, J. L. et al.). Mice heterozygous for tsc2 develop cutaneous sarcomas at a frequency of approximately 10-15% (Onda, H., Lueck, A., Marks, P. W., Warren, H. B., & Kwiatkowski, D. J. Tsc2(+/−) mice develop tumors in multiple sites that express gelsolin and are influenced by genetic background. J.Clin Invest 104, 687-695 (1999)).
(§2) The following tyrosine kinase inhibitors were reconstituted as stock solutions in dimethyl sulfoxide (DMSO) immediately prior to use; AG9, AG17, AG18, AG30, AG82, AG99, AG112, AG370, AG490, AG879, AG957, AG1295, AG1296, AG1433, 2′thioadenosine, ST638, COMPOUND I, lavendustin C, oxindole 1, JAK3 inhibitors 1,2, and 3, as well as JAK3 inhibitor negative control. They can be obtained from Calbiochem (San Diego, Calif.). 10,000 cells per well in a 24 well dish were plated on day 1, and were treated with inhibitors in doses ranging from […] (LaMontagne Jr K. R. Jr et al. Inhibition of MAP kinase kinase causes morphological reversion and dissociation between soft agar growth and in vivo tumorigenesis in angiosarcoma cells; Am.J.Pathol. 157,1937-1945 (2000)). Cells were counted 72 hours after treatment with inhibitors using a Coulter Counter (Coulter, Hialeah,Fla.).

[1] = test system: Human SV7tert angiomyolipoma cells; test: Inhibition of proliferation of SV7tert cells by tyrosine kinase inhibitors (cell count); format: cell-based; settings: for sensitivity / growth inhibition of SV7tert cells (in words): Human SV7tert cells in vitro; for N number of living cells after 72 h treatment: Human SV7tert cells; for No. of Cells after 72 hours: SV7tert cells
Description: as §1, §2

[2] = test system: Akt phosphorylation in SV7tert cells; test: Akt phosphorylation in SV7tert cells after treatment; format: cell-based, human; settings: after 24 hours of treatment

Row | SMILES | sensitivity / growth inhibition of SV7tert cells (in words) [1] | N number of living cells after 72 h treatment ([1]; concentration 10 μg/ml) | N number of living cells after 72 h treatment ([1]; concentration 20 μg/ml) | other results
1 | CC(C)(C)c1cc(C=C(C#N)C#N)cc(C(C)(C)C)c1O [AG17, 3,5-di-tert-butyl-4-hydroxybenzylidene-malononitrile] | highest sensitivity; also recorded: strongly inhibited | 23 ×100 | 22 ×100 | sensitivity / growth inhibition of tsc2ang1 cells (in words) (Murine tsc2ang1 cells; Murine tsc2ang1 cells in vitro): hypersensitivity; also recorded: strongly inhibited; N number of living cells after 72 h treatment (Murine tsc2ang1 cells; concentration 10 μg/ml): 23 ×100; N number of living cells after 72 h treatment (Murine tsc2ang1 cells; concentration 20 μg/ml): 23 ×100
2 | N#C/C(=C\c1ccc(O)c(O)c1)C(=O)O [AG30] | – | 250 ×100 | 270 ×100 | –
3 | COC(=O)c1ccc(NCc2cc(O)ccc2O)cc1 [AG957] | highest sensitivity | – | – | inhibition ([1]; 0.5 μg/ml, data not shown, cell line not stated in the sentence (SV7tert by context)): approximately 90%
4 | COc1cc2ncnc(Nc3cccc(Cl)c3)c2cc1OC [AG1478] | – | 251 ×100 | 210 ×100 | –
5 | Cc1ccc(NC(=O)c2ccc(CN3CCN(C)CC3)cc2)cc1Nc1nccc(-c2cccnc2)n1 [COMPOUND I, N-{5-[4-(4-methyl-piperazino-methyl)-benzoylamido]-2-methylphenyl}-4-(3-pyridyl)-2-pyrimidine-amine] | increased sensitivity to COMPOUND I compared to murine tsc2ang1 | – | – | Akt phosphorylation (in words) [2]: downregulation of Akt phosphorylation; No. of Cells after 72 hours ([1]; 2 μg/ml (control 22450)): 16500; No. of Cells after 72 hours ([1]; 5 μg/ml (control 22450)): 10000; No. of Cells after 72 hours ([1]; 10 μg/ml (control 22450)): 6500
6 | CCOc1cc(/C=C(\C#N)C(N)=O)cc(CSc2ccccc2)c1O [ST638] | – | 250 ×100 | 205 ×100 | –

Reference: patent US8569305B2, “Treatment of tuberous sclerosis associated neoplasms” (Emory University, priority 2002, dated 2013)
